Several values for one entry are separate records, joined by “and”; a condition that tells them apart may be missing. Equal values may be shown once. Toxic doses and inconclusive results are not listed.

Drawing on PubChem BioAssay AID248 (DTP/NCI, 2004), this text covers T/C for 18 compounds.

This assay relates to L1210 leukemia ip in BDF1 mice, survival T/C. Nature of the assay: NCI In Vivo Anticancer Drug Screen. Data for tumor model L1210 Leukemia (intraperitoneal) in B6D2F1 (BDF1) mice. Conditions: endpoint: mean survival time, higher = longer survival. The essentials:
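In this screen, tumor-bearing mice given compound are compared to those given vehicle, and their survival values are reported as a treated-to-control quotient.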

Where [1] appears, read: dose: 50.0 mg/kg/injection, schedule: Q01DX001 (ip), vehicle: carboxymethylcellulose (CMC).
The mark [2] stands for this setting: dose: 100.0 mg/kg/injection, schedule: Q01DX001 (ip), vehicle: carboxymethylcellulose (CMC).
The mark [3] stands for this setting: dose: 200.0 mg/kg/injection, schedule: Q01DX001 (ip), vehicle: carboxymethylcellulose (CMC).
The mark [4] stands for this setting: dose: 400.0 mg/kg/injection, schedule: Q01DX001 (ip), vehicle: carboxymethylcellulose (CMC).
Where [5] appears, read: dose: 25.0 mg/kg/injection, schedule: Q01DX009 (ip), vehicle: saline.
The mark [6] stands for this setting: dose: 50.0 mg/kg/injection, schedule: Q01DX009 (ip), vehicle: saline.
[7] abbreviates: dose: 100.0 mg/kg/injection, schedule: Q01DX001 (ip), vehicle: saline.
The mark [8] stands for this setting: dose: 200.0 mg/kg/injection, schedule: Q01DX001 (ip), vehicle: saline.
The mark [9] stands for this setting: dose: 100.0 mg/kg/injection, schedule: Q04DX003 (ip), vehicle: saline.
The mark [10] stands for this setting: dose: 100.0 mg/kg/injection, schedule: Q04DX003 (ip), vehicle: other.
Setting [11] is: dose: 200.0 mg/kg/injection, schedule: Q04DX003 (ip), vehicle: other.
Setting [12] is: dose: 100.0 mg/kg/injection, schedule: Q04DX002 (ip), vehicle: Klucel (hydroxypropylcellulose) (HPC).
[13] abbreviates: dose: 200.0 mg/kg/injection, schedule: Q04DX002 (ip), vehicle: Klucel (hydroxypropylcellulose) (HPC).
The mark [14] stands for this setting: dose: 400.0 mg/kg/injection, schedule: Q04DX002 (ip), vehicle: Klucel (hydroxypropylcellulose) (HPC).

For `O=C1/C(=C\C=C\c2ccccc2)CCCC/C1=C\C=C\c1ccccc1`, the T/C under setting [1] was 97 % of control, the T/C under setting [2] is 90 % of control, the T/C under setting [3] was 97 % of control and the T/C under setting [4] is 92 % of control.
Turning to `N=C(N)c1ccccc1`, the T/C is 94 % of control (dose: 100.0 mg/kg/injection, schedule: Q01DX Z (ip), vehicle: methylcellulose (MC)); 96 % of control and 89 % of control (dose: 150.0 mg/kg/injection, schedule: Q01DX Z (ip), vehicle: methylcellulose (MC)).
`C1CN(P2(N3CC3)=NP(N3CC3)(N3CC3)=NP(N3CC3)(N3CC3)=N2)CCO1` (stereo not drawn): the T/C (dose: 6.25 mg/kg/injection, schedule: Q01DX009 (ip), vehicle: saline) was 116 % of control and 119 % of control; the T/C (dose: 12.5 mg/kg/injection, schedule: Q01DX009 (ip), vehicle: saline) is 120 % of control; the T/C (dose: 25.0 mg/kg/injection, schedule: Q01DX001 (ip), vehicle: saline) is 114 % of control and 119 % of control; the T/C under setting [5] is 156 % of control and 164 % of control; the T/C under setting [6] is 99 % of control and 104 % of control and 87 % of control; the T/C under setting [7] was 181 % of control and 185 % of control. Also, under setting [8], the T/C is 89 % of control.
As for `CCCCB1OCCCO1`, the T/C runs as follows: (dose: 100.0 mg/kg/injection, schedule: Q01DX001 (ip), vehicle: Klucel (hydroxypropylcellulose) (HPC)) 98 % of control; (dose: 200.0 mg/kg/injection, schedule: Q01DX001 (ip), vehicle: Klucel (hydroxypropylcellulose) (HPC)) 88 % of control; (dose: 400.0 mg/kg/injection, schedule: Q01DX001 (ip), vehicle: Klucel (hydroxypropylcellulose) (HPC)) 92 % of control.
As to `CN(C)CC(=O)NCCCCCCCCCCNC(=O)CN(C)C`, the T/C (dose: 10.0 mg/kg/injection, schedule: Q01DX Z (ip), vehicle: saline) was 88 % of control; the T/C (dose: 30.0 mg/kg/injection, schedule: Q01DX Z (ip), vehicle: saline) was 96 % of control; the T/C (dose: 100.0 mg/kg/injection, schedule: Q01DX Z (ip), vehicle: saline) was 97 % of control; the T/C (dose: 300.0 mg/kg/injection, schedule: Q01DX Z (ip), vehicle: saline) is 102 % of control.
`Nc1ccccc1SC1CC(=O)N(c2ccccc2)C1=O` (stereo not drawn): the T/C is 95 % of control (dose: 100.0 mg/kg/injection, schedule: Q01DX009 (ip), vehicle: other); 94 % of control under setting [9]; 92 % of control (dose: 200.0 mg/kg/injection, schedule: Q01DX009 (ip), vehicle: other); 89 % of control (dose: 200.0 mg/kg/injection, schedule: Q04DX003 (ip), vehicle: saline); 92 % of control (dose: 400.0 mg/kg/injection, schedule: Q01DX009 (ip), vehicle: other); 91 % of control (dose: 400.0 mg/kg/injection, schedule: Q04DX003 (ip), vehicle: saline).
As for `CC1(C)C2CCC1(C)C(CO)C2` (stereo not drawn), the T/C was 100 % of control under setting [10] and 102 % of control under setting [11].
As for `C/C(=C\Cn1ccccc1=O)CCC(=O)O`, the T/C (dose: 100.0 mg/kg/injection, schedule: Q01DX009 (ip), vehicle: water) was 100 % of control; the T/C under setting [10] is 94 % of control; the T/C (dose: 200.0 mg/kg/injection, schedule: Q01DX009 (ip), vehicle: water) is 97 % of control; the T/C under setting [11] is 98 % of control; the T/C (dose: 400.0 mg/kg/injection, schedule: Q01DX009 (ip), vehicle: water) was 96 % of control; the T/C (dose: 400.0 mg/kg/injection, schedule: Q04DX003 (ip), vehicle: other) is 89 % of control.
`CC(CC(C#CC(CC(C)CC(C)(C)C)N(C)C)N(C)C)CC(C)(C)C` (stereo not drawn): the T/C is 96 % of control (dose: 100.0 mg/kg/injection, schedule: Q01DX009 (ip), vehicle: Klucel (hydroxypropylcellulose) (HPC)); 111 % of control under setting [12]; 93 % of control (dose: 200.0 mg/kg/injection, schedule: Q01DX009 (ip), vehicle: Klucel (hydroxypropylcellulose) (HPC)); 93 % of control under setting [13]; 90 % of control under setting [14].
As for `CC(C)CCNc1ncnc2c1cnn2C`, the T/C (dose: 25.0 mg/kg/injection, schedule: Q04DX003 (ip), vehicle: saline) was 97 % of control; the T/C (dose: 50.0 mg/kg/injection, schedule: Q04DX003 (ip), vehicle: saline) was 97 % of control; the T/C under setting [9] was 102 % of control.
On to `CSC1CCCCC1O` (stereo not drawn), for which the T/C (dose: 50.0 mg/kg/injection, schedule: Q01DX009 (ip), vehicle: saline with Tween-80) is 89 % of control; the T/C (dose: 100.0 mg/kg/injection, schedule: Q01DX009 (ip), vehicle: saline with Tween-80) is 92 % of control; the T/C (dose: 200.0 mg/kg/injection, schedule: Q01DX009 (ip), vehicle: saline with Tween-80) was 92 % of control.
On to `NC(N)=NCCCC(N=Cc1ccccc1O)C(=O)O` (stereo not drawn), for which the T/C was 96 % of control under setting [7]; 102 % of control under setting [8]; 95 % of control (dose: 400.0 mg/kg/injection, schedule: Q01DX001 (ip), vehicle: saline).
In the case of `CNC(=O)Nc1ccc(C(=O)O)cc1`, the T/C reads like this: under setting [12], 102 % of control; under setting [13], 95 % of control; under setting [14], 95 % of control.
For `CCOC(OCC)c1cc[n+](CCc2ccc(OC)c(OC)c2)cc1`, the T/C reads like this: under setting [5], 101 % of control; (dose: 25.0 mg/kg/injection, schedule: Q04DX003 (ip), vehicle: saline with Tween-80) 95 % of control; under setting [6], 101 % of control; (dose: 50.0 mg/kg/injection, schedule: Q04DX003 (ip), vehicle: saline with Tween-80) 88 % of control; (dose: 100.0 mg/kg/injection, schedule: Q01DX009 (ip), vehicle: saline) 98 % of control; (dose: 100.0 mg/kg/injection, schedule: Q04DX003 (ip), vehicle: saline with Tween-80) 95 % of control.
`CCOC(=O)/C(C#N)=C/c1cccn1Cc1cc(OC)c(OC)cc1[N+](=O)[O-]`: the T/C by setting is: (dose: 25.0 mg/kg/injection, schedule: Q04DX002 (ip), vehicle: Klucel (hydroxypropylcellulose) (HPC)) 110 % of control; (dose: 50.0 mg/kg/injection, schedule: Q04DX002 (ip), vehicle: Klucel (hydroxypropylcellulose) (HPC)) 89 % of control; under setting [12], 96 % of control.
Turning to `CCOC(=O)CN(C)c1ccccc1`, the T/C was 104 % of control under setting [1], 107 % of control under setting [2], 93 % of control under setting [3] and 107 % of control under setting [4].
With `Nc1c(C(F)(F)F)[nH]c(Cl)nc1=S`, the T/C was 105 % of control (dose: 29.0 mg/kg/injection, schedule: Q01DX Z (ip), vehicle: methylcellulose (MC)) and 94 % of control (dose: 66.0 mg/kg/injection, schedule: Q01DX Z (ip), vehicle: methylcellulose (MC)).
`CCC(O)C[As](=O)(O)c1cccc(Cl)c1` (stereo not drawn): the T/C runs as follows: (dose: 0.78 mg/kg/injection, schedule: Q04DX002 (ip), vehicle: saline) 106 % of control; (dose: 0.78 mg/kg/injection, schedule: Q04DX003 (ip), vehicle: saline with Tween-80) 92 % of control; (dose: 1.56 mg/kg/injection, schedule: Q01DX001 (ip), vehicle: saline) 96 % of control; (dose: 1.56 mg/kg/injection, schedule: Q04DX002 (ip), vehicle: saline) 101 % of control; (dose: 1.56 mg/kg/injection, schedule: Q04DX003 (ip), vehicle: saline with Tween-80) 94 % of control; (dose: 3.13 mg/kg/injection, schedule: Q01DX001 (ip), vehicle: saline) 100 % of control. In addition, the T/C is, setting by setting: (dose: 3.13 mg/kg/injection, schedule: Q04DX002 (ip), vehicle: saline) 105 % of control; (dose: 3.13 mg/kg/injection, schedule: Q04DX003 (ip), vehicle: saline with Tween-80) 95 % of control; (dose: 6.25 mg/kg/injection, schedule: Q01DX001 (ip), vehicle: saline with Tween-80) 120 % of control; (dose: 6.25 mg/kg/injection, schedule: Q01DX001 (ip), vehicle: saline) 91 % of control; (dose: 6.25 mg/kg/injection, schedule: Q04DX002 (ip), vehicle: saline) 97 % of control; (dose: 6.25 mg/kg/injection, schedule: Q04DX003 (ip), vehicle: saline with Tween-80) 92 % of control.
